US8846898B2, “Phosphinoamidite carboxylates and analogs thereof in the synthesis of oligonucleotide having reduced internucleotide charge” (Lieure Cornu LLC, priority 2000, dated 2014)
[pace] = phosphonoacetate internucleotide linkage

Assays:
DNase I = DNase I (Bos taurus, UniProt P00639)
Description: Radiolabeling of Oligodeoxynucleotides: ODNs were 5′ end-labeled using γ-^32P ATP and T4 polynucleotide kinase (Wu et al., “Purification and Sequence Analysis of Synthetic Oligodeoxyribonucleotides,” in Oligonucleotide Synthesis: A Practical Approach, Gait, Ed. (Oxford University Press, 1990)). […] The radiolabeled ODNs were purified by gel electrophoresis and ethanol precipitation.
Endonuclease Stability: Endonuclease digestion experiments were carried out using DNase I (Boehringer-Mannheim). The assays were performed using a mixture of oligodeoxynucleotide labeled with ^32P at the 5′-end (100,000 cpm) and unlabeled oligodeoxynucleotide (40 pmol) in a buffer containing 40 mM Tris-HCl, pH 7.5, 6 mM MgCl2. Slight excess of the complementary DNA strand (1.2 eq.) was added and the mixture was heated to 95° C. for 5 minutes then chilled on ice for 30 minutes. Enzyme was added to a final concentration of 1 unit/μl (40 μl total reaction volume). The reaction mixture was overlayed with 25 μl of mineral oil and incubated at 37° C. Aliquots (3.5 μl) were removed and quenched by adding 7M urea in TBE buffer (12 μl) and heating to 95° C. for 5 minutes. […]
The mixtures were heated to 95° C. for 5 minutes followed by slow cooling and incubation on ice for 30 minutes. The mixture was equilibrated to room temperature, DNase I added, and the reaction monitored as a function of time. […]

E. coli RNaseH1 = E. coli RNaseH1 (Escherichia coli, UniProt P0A7Y4); assay: Hydrolysis of RNA heteroduplexes with E. coli RNaseH1; assay type: biochemical; conditions: 5′-32P RNA, two units RNaseH1, four hours at 37° C.
E. coli RNaseH1, sequence (P0A7Y4 whole entry): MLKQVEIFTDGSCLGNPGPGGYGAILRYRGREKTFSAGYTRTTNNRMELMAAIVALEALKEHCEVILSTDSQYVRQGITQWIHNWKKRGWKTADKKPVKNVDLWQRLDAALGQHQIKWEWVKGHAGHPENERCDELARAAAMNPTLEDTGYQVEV

[1] = tested on: Phosphodiesterase I from Crotalus adamanteu (snake venom phosphodiesterase)

DNase I, sequence (P00639 23-282): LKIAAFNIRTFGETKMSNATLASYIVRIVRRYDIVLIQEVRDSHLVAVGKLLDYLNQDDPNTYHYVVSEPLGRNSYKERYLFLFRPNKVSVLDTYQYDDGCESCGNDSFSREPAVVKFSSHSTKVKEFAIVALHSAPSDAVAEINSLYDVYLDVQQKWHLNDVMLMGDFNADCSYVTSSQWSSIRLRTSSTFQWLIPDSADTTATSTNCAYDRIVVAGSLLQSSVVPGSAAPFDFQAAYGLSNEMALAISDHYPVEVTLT

Substance	time to complete degradation by DNase I (DNase I)	RNA degraded (converted to hydrolysis products) in the presence of the oligonucleotide and RNaseH1 (E. coli RNaseH1)	degradation / hydrolysis products observed on incubation with DNase I (DNase I)	degradation / hydrolysis products observed on exposure to SVP [1]
phosphodiester ODN: 18-mer mixed sequence ODN 5′-CTCAAGTGGGCTGGTGAC-3′ containing internucleotide phosphodiester linkages (unmodified DNA) (unmodified DNA) [reference compound]	≤ 1 h	–	–	–
phosphonoacetate ODN: 18-mer mixed sequence ODN 5′-CTCAAGTGGGCTGGTGAC-3′ containing internucleotide phosphonoacetate linkages (DNA, all [pace], methylation of C not given here)	–	approximately 66%	no degradation products	No detectable degradation products
